Test results published in publication PMC12567041 (Pharmaceutics, 2025).
Values joined by “and” are separate entries in the source; they are usually repeats but may differ in a detail not shown here. Equal entries are not always repeated. “Also recorded” adds a separate entry of the source.

Legend:
[1] = Two-stage dissolution FaSSGF to FaSSIF; type: physicochemical; settings: doses up to 200 mg
Procedure: […]. […] In vitro two-stage dissolution experiments, during which the drug/formulation is pre-exposed to fasted-state simulated gastric fluid (FaSSGF) for a 30 min period, at the end of which, properly concentrated fasted-state simulated intestinal fluid (FaSSIF) is immediately added to FaSSGF [13], were performed to assess the risk of precipitation in vitro. […] Considering the high passive permeability, this indicates low risk for compromised absorption in vivo, further supporting the assumption of the complete absorption of asciminib in humans in the fasted state.

[2] = Biopharmaceutics classification; type: physicochemical
[3] = Fraction unbound in microsomal incubation (fumic); type: in vitro ADME; settings: for fraction unbound: human, microsomes (microsomal incubation)
[4] = tested on: CYP3A4/5; assay: Time-dependent inhibition of CYP3A4/5; type: in vitro ADME; settings: up to 50 μM; in-house data
[5] = Relative contributions of clearance pathways (fm/fe/ft); set-up: species or system human
Source text: However, as discussed below, the in vivo contribution of UGTs was later adjusted downward to account for BCRP-mediated biliary excretion.
The contributions of CYP enzymes and renal elimination remained unchanged. […] A summary of the Simcyp output for elimination pathways, with and without BCRP, is provided in Supplementary Table S1.

[6] = Clinical DDI studies, asciminib as victim (observed); type: in vivo, human; settings: asciminib 200 mg single dose + phenytoin 100 mg TID
[7] = Compartmental concentrations for static DDI risk assessment; set-up: species or system human
[8] = cited from earlier work
[9] = tested on: CYP3A4
[10] = in vitro, mean (SD); cited from earlier work
[11] = tested on: CYP2J2; settings: Km*fumic; read-out: Km,u (CYP2J2), mean (SD); cited from earlier work
[12] = HLMs; cited from earlier work
[13] = cited from earlier work; remark: listed apart in the source
[14] = 40 mg dose; cited from earlier work
[15] = with strong P-gp inhibitor quinidine; cited from earlier work
[16] = cited from earlier work; remark: listed apart in the source
[17] = cited from earlier work; remark: listed apart in the source
[18] = in vitro; settings: MDCK
[19] = tested on: CYP3A4; assay: Enzyme kinetics, recombinant CYP3A4; settings: back-calculated, aim for fm = 0.351
Source text: (§1) Using the Simcyp retrograde model, initial estimates of intrinsic clearance (CLint,u) were derived based on fractional contributions from recombinant human CYP and UGT enzymes, as well as additional intrinsic clearance in HLMs attributed to hydrolysis. Enzyme kinetic parameters (Km and Vmax) were used to establish the model, with Vmax values back-calculated as the product of CLint,u and Km to match the observed fm values to the total clearance.

[20] = tested on: CYP2J2; assay: Enzyme kinetics, recombinant CYP2J2; settings: back-calculated, aim for fm = 0.0076
Source text: as §1

[21] = tested on: MDCK-LE cell line; assay: Apparent passive permeability in MDCK-LE cells; settings: from MDCK-LE permeability
[22] = Preclinical volume of distribution across animal species; settings: in vivo
Source text: Due to the inclusion of hepatic efflux transporters in Simcyp, the whole-body PBPK model was employed. […] However, the passive diffusion clearance (CLPD) in the PerL increases the Vss by moving the drug into the liver. A top-down approach was applied to adjust the Kp scalar to visually best fit the model to the distribution phase of the observed clinical PK data.

[23] = Table S1, sum of hepatic and renal UGT contributions
[24] = assuming no active biliary secretion

SMILES: O=C(Nc1ccc(OC(F)(F)Cl)cc1)c1cnc(N2CC[C@@H](O)C2)c(-c2ccn[nH]2)c1 [asciminib]
- duration of sustained supersaturation [1]: at least 1 h
- precipitation in vitro [1]: < 20%
- biopharmaceutics classification system (BCS) class [2]: class II
- fumic ([3]; 0.810 mg of protein/mL (CYP3A4 incubation)): 0.160
- fumic ([3]; 1.40 mg of protein/mL (CYP2J2 incubation)): 0.0925
- fumic ([3]; 1.5 mg of protein/mL (UGT incubation)): 0.0811
- fumic ([3]; 1.58 mg of protein/mL (CYP2C8 incubation)): 0.0829
- fumic ([3]; 1.86 mg of protein/mL (CYP2D6 incubation)): 0.0680
- fraction unbound ([3]; 0.025 mg/mL of protein): 0.871
- fraction unbound ([3]; 0.05 mg/mL of protein): 0.75
- fraction unbound ([3]; 0.5 mg/mL of protein): 0.208
- time-dependent inhibition (TDI) of CYP3A4/5 [4]: no apparent TDI; also recorded: no in vitro apparent time-dependent inhibition
- CYP2C8: aim for fm/fe/ft, Simcyp output (without BCRP) ([5]; Table S1): 0.007
- CYP2C8: aim for fm/fe/ft, final fm (including hepatic BCRP) ([5]; Table S1): 0.005
- CYP2C8: fm/fe based on hADME ([5]; Table S1): 0.005
- CYP2D6: aim for fm/fe/ft, Simcyp output (without BCRP) ([5]; Table S1): 0.003
- CYP2D6: aim for fm/fe/ft, final fm (including hepatic BCRP) ([5]; Table S1): 0.002
- CYP2D6: fm/fe based on hADME ([5]; Table S1): 0.002
- CYP2J2: aim for fm/fe/ft, Simcyp output (without BCRP) ([5]; Table S1): 0.011
- CYP2J2: aim for fm/fe/ft, final fm (including hepatic BCRP) ([5]; Table S1): 0.0076
- CYP2J2: fm/fe based on hADME ([5]; Table S1): 0.0076
- CYP3A4: aim for fm/fe/ft, Simcyp output (without BCRP) ([5]; Table S1): 0.509
- CYP3A4: aim for fm/fe/ft, final fm (including hepatic BCRP) ([5]; Table S1): 0.351
- CYP3A4: fm/fe based on hADME ([5]; Table S1): 0.351
- Hepatic BCRP: aim for fm/fe/ft, final fm (including hepatic BCRP) ([5]; Table S1): 0.311
- Hydrolysis: aim for fm/fe/ft, Simcyp output (without BCRP) ([5]; Table S1): 0.010
- Hydrolysis: aim for fm/fe/ft, final fm (including hepatic BCRP) ([5]; Table S1): 0.007
- Hydrolysis: fm/fe based on hADME ([5]; Table S1): 0.007
- Renal excretion: aim for fm/fe/ft, Simcyp output (without BCRP) ([5]; Table S1): 0.035
- Renal excretion: aim for fm/fe/ft, final fm (including hepatic BCRP) ([5]; Table S1): 0.044
- Renal excretion: fm/fe based on hADME ([5]; Table S1): 0.044
- UGT1A3: aim for fm/fe/ft, Simcyp output (without BCRP) ([5]; Table S1): 0.048
- UGT1A3: aim for fm/fe/ft, final fm (including hepatic BCRP) ([5]; Table S1): 0.033
- UGT1A3: fm/fe based on hADME ([5]; Table S1): 0.0705
- UGT1A4: aim for fm/fe/ft, Simcyp output (without BCRP) ([5]; Table S1): 0.048
- UGT1A4: aim for fm/fe/ft, final fm (including hepatic BCRP) ([5]; Table S1): 0.033
- UGT2B7: aim for fm/fe/ft, Simcyp output (without BCRP) ([5]; Table S1): 0.190
- UGT2B7: aim for fm/fe/ft, final fm (including hepatic BCRP) ([5]; Table S1): 0.131
- UGT2B17: aim for fm/fe/ft, Simcyp output (without BCRP) ([5]; Table S1): 0.110
- UGT2B17: aim for fm/fe/ft, final fm (including hepatic BCRP) ([5]; Table S1): 0.076
- UGT2B17: fm/fe based on hADME ([5]; Table S1): 0.163
- UGT1A4: fm/fe based on hADME [5, 23]: 0.0705
- UGT2B7: fm/fe based on hADME [5, 23]: 0.279
- revised total UGT contribution to total clearance ([5]; after subtracting BCRP contribution): approximately 27.3%
- CYP-mediated contribution to total clearance [5, 24]: 36.6%
- UGT-mediated contribution to total clearance [5, 24]: 58.3%
- reduction of AUCinf, observed [6]: 34%
- reduction of Cmax, observed [6]: 22%
- Cgut (maximal gut concentration) ([7]; 40 mg BID): 356 µM
- Cgut,ent (maximal enterocyte concentration) ([7]; 40 mg BID): 10.5 µM
- Ch,in,tot (total maximal hepatic inlet plasma concentration) ([7]; 40 mg BID): 4.47 µM
- Ch,in,u (unbound maximal hepatic inlet plasma concentration at the steady state) ([7]; 40 mg BID): 0.121 µM
- Cgut (maximal gut concentration) ([7]; 80 mg QD): 711 µM
- Cgut,ent (maximal enterocyte concentration) ([7]; 80 mg QD): 20.9 µM
- Ch,in,tot (total maximal hepatic inlet plasma concentration) ([7]; 80 mg QD): 9.38 µM
- Ch,in,u (unbound maximal hepatic inlet plasma concentration at the steady state) ([7]; 80 mg QD): 0.253 µM
- Cgut (maximal gut concentration) ([7]; 200 mg BID): 1778 µM
- Cgut,ent (maximal enterocyte concentration) ([7]; 200 mg BID): 52.4 µM
- Ch,in,tot (total maximal hepatic inlet plasma concentration) ([7]; 200 mg BID): 26.1 µM
- Ch,in,u (unbound maximal hepatic inlet plasma concentration at the steady state) ([7]; 200 mg BID): 0.704 µM
- estimated gastrointestinal luminal concentration ([7]; lowest clinical dose 20 mg): ~ 178 μM
- Log P: Octanol–water partition/logD pH 6.8 [8]: 3.9
- Emax (CYP3A4), non-calibrated [9]: Non-calibrated Emax = 4.4 In-house data fold
- Indmax (=Emax + 1) (CYP3A4), in vitro measured [9]: 5.4 fold
- fup (fraction unbound in plasma) [10]: 0.027 (0.011)
- Km [11]: 0.694 µM
- share of metabolism by glucuronidation [12]: ~ 65%
- share of metabolism by oxidative metabolism [12]: ~ 35%
- unchanged asciminib in urine [13]: 4.4 % of the administered radioactive dose
- parent asciminib in feces due to back-conversion of M30.5 ([13]; estimated from late-time-point feces profile): 24%
- CLr (renal clearance) ([13]; healthy): 1.8 mL/min/1.73 m^2
- unchanged asciminib in cumulative feces ([13]; pooled 0–96 h or 0–168 h, average): 56.7 % of the dose
- AUC in cancer patients [14]: 5800 to 6100 ng·h/mL
- decrease of asciminib AUC [15]: 13%
- decrease of asciminib Cmax [15]: 11%
- exposure reduction, high-fat fed [16]: 70%
- exposure reduction, low-fat fed [16]: 33%
- flux in presence of elevated bile acid concentrations (FeSSIF) [17]: reduced asciminib flux
- recovery ([18]; dog): 88%
- Papp ([18]; human): 373 ×10⁻⁶ cm/s
- Vmax (CYP3A4) [19]: 3.8 pmol/min/pmol of CYP
- Vmax (CYP2J2) [20]: 0.355 pmol/min/pmol CYP
- predicted fraction absorbed (fa) [21]: 93% and ~ 93%
- Vd [22]: 0.5 to 2.2 L/kg
